# Measured values published in ChEMBL document CHEMBL4765295, “Synthesis, pharmacological profile and 2D-QSAR studies of curcumin-amino acid conjugates as potential drug candidates” (Eur J Med Chem, 2020).
# Several values for one entry are separate records, joined by “and”; a condition that tells them apart may be missing. Equal values may be shown once.
# Tests used:
# Rattus norvegicus [1] = assay: Antiinflammatory activity in Wistar rat model of carrageenan-induced paw edema assessed as reduction in thickness of paw edema at 10 mg/kg, ip pretreated for 1 hr followed by carrageenan challenge and measured after 1 hr (reference value: 2.41 +/-0.05 mm); assay type: functional; details: time 1 hr after carrageenan
# Rattus norvegicus [2] = assay: Anti-inflammatory activity in Wistar rat assessed as inhibition of carrageenan-induced paw edema at 10 mg/kg, ip pretreated for 1 hr followed by carrageenan challenge and measured after 1 hr relative to control (reference value: 0.00 +/-0.02 %); assay type: functional; details: time 2 hrs
# Rattus norvegicus [3] = assay: Antiinflammatory activity in Wistar rat model of carrageenan-induced paw edema assessed as reduction in thickness of paw edema at 10 mg/kg, ip pretreated for 1 hr followed by carrageenan challenge and measured after 2 hrs (reference value: 2.06 +/-0.09 mm); assay type: functional; details: time 3 hrs
# Rattus norvegicus [4] = assay: Anti-inflammatory activity in Wistar rat assessed as inhibition of carrageenan-induced paw edema at 10 mg/kg, ip pretreated for 1 hr followed by carrageenan challenge and measured after 2 hr relative to control (reference value: 0.00 +/-0.03 %); assay type: functional; details: time 3 hrs
# Rattus norvegicus [5] = assay: Antiinflammatory activity in Wistar rat model of carrageenan-induced paw edema assessed as reduction in thickness of paw edema at 10 mg/kg, ip pretreated for 1 hr followed by carrageenan challenge and measured after 3 hrs (reference value: 1.79 +/-0.07 mm); assay type: functional; details: time 4 hrs
# Rattus norvegicus [6] = assay: Anti-inflammatory activity in Wistar rat assessed as inhibition of carrageenan-induced paw edema at 10 mg/kg, ip pretreated for 1 hr followed by carrageenan challenge and measured after 3 hr relative to control (reference value: 0.00 +/-0.1 %); assay type: functional; details: time 4 hrs
# Rattus norvegicus [7] = assay: Antiinflammatory activity in Wistar rat model of carrageenan-induced paw edema assessed as reduction in thickness of paw edema at 10 mg/kg, ip pretreated for 1 hr followed by carrageenan challenge and measured after 4 hrs (reference value: 1.40 +/-0.10 mm); assay type: functional; details: time 5 hrs
# Rattus norvegicus [8] = assay: Anti-inflammatory activity in Wistar rat assessed as inhibition of carrageenan-induced paw edema at 10 mg/kg, ip pretreated for 1 hr followed by carrageenan challenge and measured after 4 hr relative to control (reference value: 0.00 +/-0.4 %); assay type: functional; details: time 5 hrs
# Rattus norvegicus [9] = assay: Antiinflammatory activity in Wistar rat model of carrageenan-induced paw edema assessed as reduction in thickness of paw edema at 10 mg/kg, ip pretreated for 1 hr followed by carrageenan challenge and measured after 24 hrs (reference value: 0.83 +/-0.08 mm); assay type: functional; details: time 25 hrs
# Rattus norvegicus [10] = assay: Anti-inflammatory activity in Wistar rat assessed as inhibition of carrageenan-induced paw edema at 10 mg/kg, ip pretreated for 1 hr followed by carrageenan challenge and measured after 24 hr relative to control (reference value: 0.00 +/-0.3 %); assay type: functional; details: time 25 hrs
# Rattus norvegicus [11] = assay: Anti-inflammatory activity in Wistar rat assessed as inhibition of carrageenan-induced paw edema at 10 mg/kg, ip pretreated for 1 hr followed by carrageenan challenge and measured after 4 hr relative to indomethacin; assay type: functional; details: time 5 hrs
# [12] = Ulcerogenic activity in fasted albino mouse assessed as incidence of gastric ulceration at 10 mg/kg, po for 3 days (reference value: 0 %); assay type: toxicity, organism-based; details: in vivo, 72 h, time 3 day
# [13] = Ulcerogenic activity in fasted albino mouse assessed as average number of ulcers in gastric mucosa at 10 mg/kg, po for 3 days (reference value: 0); assay type: toxicity, organism-based; details: in vivo, 72 h, time 3 day
# [14] = Ulcerogenic activity in fasted albino mouse assessed as average severity of ulcers in gastric mucosa at 10 mg/kg, po for 3 days (reference value: 0); assay type: toxicity, organism-based; details: in vivo, 72 h, time 3 day
# [15] = Ulcerogenic activity in fasted albino mouse assessed as ulcer index in gastric mucosa at 10 mg/kg, po for 3 days (reference value: 0); assay type: toxicity, organism-based; details: in vivo, 72 h, time 3 day
# Splenocyte [16] = assay: Immunomodulatory activity in Swiss albino mouse splenocytes assessed as cell viability at 10 uM by measuring stimulation index incubated for 72 hrs in presence of mitogenic stimulus phytohaemagglutinin by MTT assay (reference value: 1.00 +/- 0.24); assay type: functional
# Splenocyte [17] = assay: Immunomodulatory activity in Swiss albino mouse splenocytes assessed as cell viability at 10 uM by measuring inhibition of stimulation index incubated for 72 hrs in presence of mitogenic stimulus phytohaemagglutinin by MTT assay relative to indomethacin; assay type: functional; details: read-out: Activity
# Peritoneal macrophage [18] = assay: Antiinflammatory activity in […] mouse Peritoneal macrophages assessed as reduction in LPS-induced NO production by measuring reduction in stimulation index at 10 uM preincubated for 1 hr followed by LPS stimulation measured after 24 hrs by Griess method (reference value: 27.31 +/- 2.56 uM); assay type: functional; details: time 25 hrs
# Peritoneal macrophage [19] = assay: Antiinflammatory activity in […] mouse Peritoneal macrophages assessed as inhibition of LPS-induced NO production at 10 uM preincubated for 1 hr followed by LPS stimulation measured after 24 hrs by Griess method relative to control (reference value: 0.0 %); assay type: functional; set-up: scale not given: the % may be the effect or the level left; details: time 25 hrs
# Mus musculus [20] = assay: Analgesic activity in albino mouse assessed reduction in acetic acid-induced abdominal writhing by measuring writing reflex at 10 mg/kg, ip pretreated for 1 hr followed by acetic acid challenge and measured starting 5 mins post acetic acid challenge for 10 mins (reference value: 42.4 +/- 1.02); assay type: functional; details: time 75 min, 1.25 h
# Mus musculus [21] = assay: Analgesic activity in albino mouse assessed protection against acetic acid-induced abdominal writhing at 10 mg/kg, ip pretreated for 1 hr followed by acetic acid challenge and measured starting 5 mins post acetic acid challenge for 10 mins relative to control (reference value: 0 %); assay type: functional; details: time 75 min, 1.25 h
# Mus musculus [22] = assay: Analgesic activity in albino mouse assessed protection against acetic acid-induced abdominal writhing at 10 mg/kg, ip pretreated for 1 hr followed by acetic acid challenge and measured starting 5 mins post acetic acid challenge for 10 mins relative to indomethacin; assay type: functional; details: time 75 min, 1.25 h
# Mus musculus [23] = assay: Analgesic activity in albino mouse assessed as forepaw licking/jumping latency time at 10 mg/kg, ip measured after 30 mins by hot plate test (reference value: 5.02 +/- 0.09 sec); assay type: functional; details: 0.5 h
# Mus musculus [24] = assay: Analgesic activity in albino mouse assessed as protection at 10 mg/kg, ip measured after 30 mins by hot plate test (reference value: 0 %); assay type: functional; details: 0.5 h
# Mus musculus [25] = assay: Analgesic activity in albino mouse assessed as forepaw licking/jumping latency time at 10 mg/kg, ip measured after 60 mins by hot plate test (reference value: 3.42 +/- 0.03 sec); assay type: functional; details: 1 h
# Mus musculus [26] = assay: Analgesic activity in albino mouse assessed as protection at 10 mg/kg, ip measured after 60 mins by hot plate test (reference value: 0 %); assay type: functional; details: 1 h
# Mus musculus [27] = assay: Analgesic activity in albino mouse assessed as forepaw licking/jumping latency time at 10 mg/kg, ip measured after 90 mins by hot plate test (reference value: 2.72 +/- 0.01 sec); assay type: functional; details: 1.5 h
# Mus musculus [28] = assay: Analgesic activity in albino mouse assessed as protection at 10 mg/kg, ip measured after 90 mins by hot plate test (reference value: 0 %); assay type: functional; details: 1.5 h
# Mus musculus [29] = assay: Analgesic activity in albino mouse assessed as forepaw licking/jumping latency time at 10 mg/kg, ip measured after 120 mins by hot plate test (reference value: 2.62 +/- 0.06 sec); assay type: functional; details: 2 h
# Mus musculus [30] = assay: Analgesic activity in albino mouse assessed as protection at 10 mg/kg, ip measured after 120 mins by hot plate test (reference value: 0 %); assay type: functional; details: 2 h
# Mus musculus [31] = assay: Analgesic activity in albino mouse assessed as protection at 10 mg/kg, ip measured after 120 mins by hot plate test relative to indomethacin; assay type: functional; details: 2 h
# Staphylococcus aureus = assay: Antibacterial activity against Staphylococcus aureus ATCC 25923 incubated for 18 hrs by agar dilution method; assay type: functional
# Streptococcus pyogenes = assay: Antibacterial activity against Streptococcus pyogenes ATCC 19615 incubated for 18 hrs by agar dilution method; assay type: functional
# Salmonella typhimurium = assay: Antibacterial activity against Salmonella typhimurium ATCC 19430 incubated for 18 hrs by agar dilution assay; assay type: functional, Salmonella enterica subsp. enterica serovar Typhimurium; details: Salmonella enterica
# Pseudomonas aeruginosa = assay: Antibacterial activity against Pseudomonas aeruginosa ATCC 27853 incubated for 18 hrs by agar dilution assay; assay type: functional
# Candida albicans = assay: Antifungal activity against Candida albicans incubated for 18 to 24 hrs by CLSI method; assay type: functional; details: time 18-24 hrs
# [32] = Toxicity in albino mouse assessed as induction of toxic symptoms at 50 to 100 mg/kg, ip measured after 24 hrs; assay type: organism-based; details: in vivo, dose 50-100 mg/kg
Compound,Activity (Rattus norvegicus [1]) [mm],inhibition in vivo at 10 mg/kg (Rattus norvegicus [2]) [%],Activity (Rattus norvegicus [3]) [mm],inhibition in vivo at 10 mg/kg (Rattus norvegicus [4]) [%],Activity (Rattus norvegicus [5]) [mm],inhibition in vivo at 10 mg/kg (Rattus norvegicus [6]) [%],Activity (Rattus norvegicus [7]) [mm],inhibition in vivo at 10 mg/kg (Rattus norvegicus [8]) [%],Activity (Rattus norvegicus [9]) [mm],inhibition in vivo at 10 mg/kg (Rattus norvegicus [10]) [%],inhibition in vivo at 10 mg/kg (Rattus norvegicus [11]) [%],Activity [12] [%],Activity [13],Activity [14],UI [15],Activity_index (Splenocyte [16]),viability at 10 µM (Splenocyte [17]) [%],Activity (Peritoneal macrophage [18]) [µM],Activity (Peritoneal macrophage [19]) [%],Activity (Mus musculus [20]),further results
COc1cc(/C=C/C(=O)/C=C(O)/C=C/c2ccc(OC(=O)[C@@H](C)NC(=O)OCc3ccccc3)c(OC)c2)ccc1OC(=O)[C@@H](C)NC(=O)OCc1ccccc1,0.43,82,0.23,89,0.09,95,0,100,0.42,49,115,0,0,0,0,1.59,76,17.63,35.45,14.4,Activity (Mus musculus [21]): 66%; Activity (Mus musculus [22]): 107.1%; Time (Mus musculus [23]): 5.6 s; Activity (Mus musculus [24]): 11.6%; Time (Mus musculus [25]): 3.7 s; Activity (Mus musculus [26]): 8.2%; Time (Mus musculus [27]): 3.42 s; Activity (Mus musculus [28]): 25.7%; Time (Mus musculus [29]): 3.28 s; Activity (Mus musculus [30]): 25.2%; Activity (Mus musculus [31]): 60%; MIC (Staphylococcus aureus): 0.5 µg/mL and 0.642 µM; MIC (Streptococcus pyogenes): 0.125 µg/mL and 0.161 µM; MIC (Salmonella typhimurium): 0.5 µg/mL and 0.642 µM; MIC (Pseudomonas aeruginosa): 1 µg/mL and 1.28 µM; MIC (Candida albicans): 0.5 µg/mL and 0.642 µM; Activity [32]: Non-Toxic
COc1cc(/C=C/C(=O)CC(=O)/C=C/c2ccc(O)c(OC)c2)ccc1O [CURCUMIN],2.12,12,0.82,60,0.45,75,0.21,85,0.53,36,98,3.33,0.33,0.33,3.99,1.52,79.5,17.18,37.11,20.3,Activity (Mus musculus [21]): 52.1%; Activity (Mus musculus [22]): 84.6%; Time (Mus musculus [23]): 5.04 s; Activity (Mus musculus [24]): 0.4%; Time (Mus musculus [25]): 4.62 s; Activity (Mus musculus [26]): 35.1%; Time (Mus musculus [27]): 4.54 s; Activity (Mus musculus [28]): 66.9%; Time (Mus musculus [29]): 3.46 s; Activity (Mus musculus [30]): 32.1%; Activity (Mus musculus [31]): 76.4%; MIC (Staphylococcus aureus): 0.339 µM; MIC (Streptococcus pyogenes): 0.125 µg/mL and 0.339 µM; MIC (Salmonella typhimurium): 0.125 µg/mL and 0.339 µM; MIC (Pseudomonas aeruginosa): 0.125 µg/mL and 0.339 µM; MIC (Candida albicans): 0.125 µg/mL and 0.339 µM
